Source: patent US11596644B2, “Method for treating post-prandial hypoglycemia” (AVOLYNT, priority 2018, dated 2023)

Experiments:
[1] = biological target: T1, rat SGLT1 (Rattus norvegicus, UniProt P53790); test: Inhibition of radiolabeled α-MG uptake into COS-7 cells transfected with rat SGLT1 (Dixon plot); assay type: cell-based
T1 construct: expressed in transfected cells; host or cells: COS-7
T1 sequence (P53790 1-665): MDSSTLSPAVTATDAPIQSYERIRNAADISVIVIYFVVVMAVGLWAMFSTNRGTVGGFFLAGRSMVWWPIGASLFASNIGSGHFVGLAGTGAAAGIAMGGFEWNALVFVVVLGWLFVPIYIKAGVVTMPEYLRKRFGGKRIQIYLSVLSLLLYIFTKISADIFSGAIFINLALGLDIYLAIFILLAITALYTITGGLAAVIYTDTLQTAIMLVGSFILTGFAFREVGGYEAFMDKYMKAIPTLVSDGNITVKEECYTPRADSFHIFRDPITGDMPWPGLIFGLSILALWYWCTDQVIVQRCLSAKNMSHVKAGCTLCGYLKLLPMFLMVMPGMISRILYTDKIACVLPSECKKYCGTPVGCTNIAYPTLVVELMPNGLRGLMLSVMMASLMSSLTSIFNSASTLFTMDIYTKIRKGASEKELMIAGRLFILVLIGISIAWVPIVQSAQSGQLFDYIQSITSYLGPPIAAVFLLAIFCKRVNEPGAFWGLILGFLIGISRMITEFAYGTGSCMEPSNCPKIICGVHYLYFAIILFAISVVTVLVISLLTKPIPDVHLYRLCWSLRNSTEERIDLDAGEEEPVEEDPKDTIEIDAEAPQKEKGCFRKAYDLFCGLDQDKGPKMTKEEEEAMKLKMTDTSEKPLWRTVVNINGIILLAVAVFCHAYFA
Experimental: Selective inhibition study. Inhibition constants (Ki) of mizagliflozin for rat and human SGLT1 and SGLT2 were determined measuring concentration-dependent effects of test compound on uptake of radiolabeled methyl-α-D-glucopyranoside (α-MG) into COS-7 cells transiently transfected with cloned SGLT1 or SGLT2. Mizagliflozin was assessed at concentrations from 1 to 30 μM and 3 to 100 μM for human and rat SGLT2, respectively. It was assessed at concentrations from 30 nM to 1 μM and 10 to 30 nM for human and rat SGLT1, respectively. α-MG test concentrations were 0.3 and 1 mM. Data were analyzed and Ki determined using Dixon plots of initial transport rates. […] Inhibition constants were also determined for human SGLT1 and SGLT2.

[2] = test system: normal Sprague Dawley rats; test: Mixed carbohydrate tolerance test in normal rats; assay type: in vivo, rat
Experimental: Study on normal rats. The efficacy of mizagliflozin (decreasing plasma glucose levels) in normal Sprague Dawley rats was determined in a mixed carbohydrate tolerance test. Normal rats were fasted for 16 hours and then given an oral loading dose of 2.0 g/kg of mixed carbohydrate (soluble starch:sucrose:lactose monohydrate=6:3:1). Mizagliflozin (KGA-3235 sebacate), or water as the vehicle control, was then administered as a single oral dose to groups of male rats (n=8/group) at doses of 0.03, 0.1, 0.3, and 1 mg/kg. Voglibose, a glucosidase inhibitor similar to acarbose, was used as a positive control and was administered as a single oral dose to male rats (n=8/group) at dose levels of 0.1, 0.3 and 1 mg/kg. Blood samples were collected just prior to loading with mixed carbohydrate and at 0.5, 1, 2, 3, 4, and 6 hours after loading.

[3] = test system: healthy adult male volunteers; test: Repeat dose study in humans, pharmacodynamic parameters after meals; assay type: in vivo, human; conditions: repeat dosing; for AUC 0-5 GIP / AUC 0-5 GLP-1 (active) / AUC 0-5 Insulin / AUC 0-5 glucose / GIP (peak) / GLP-1 (active) (peak) / Glucose (peak) / Insulin (peak) / Time (h) to peak, GIP / Time (h) to peak, GLP-1 (active) / Time (h) to peak, glucose / Time (h) to peak, insulin: Day 3 after breakfast
Experimental: Repeat dose study in humans. Oral doses of 2 mg, 5 mg, 10 mg, 20 mg, of mizagliflozin, placebo or miglitol 50 mg per dose three times daily to healthy adult male volunteers by a randomized, placebo-controlled, parallel-group, double-blind comparison method. The dose was orally administered with approximately 150 mL of water once daily immediately before breakfast on Days 1 and 13, and three times daily immediately before every meal on Days 3 to 12.
Changes in the following parameters and ΔAUC from 0 to t* hours after breakfast, lunch, and evening meal were measured: Blood glucose level, Serum insulin concentration, Blood active GLP-1 concentration, and Blood total GIP concentration, where t=0.5, 1, 1.5, 2, and 3 (t=0.5, 1, 1.5, 2, 3, and 5 only after breakfast).
In the miglitol group, hyperglycemia was suppressed after breakfast, lunch, and evening meal, as compared to the placebo group. […] These pharmacodynamic effects more or less persisted during 10-day repeated administration. There was no correlation between plasma mizagliflozin concentration and the pharmacodynamic effects. Measurements in Tables 5-8 were performed on Day 3 after breakfast.

[4] = Oral pharmacokinetics and excretion in rats; assay type: in vivo, rat
Source text: (§1) Accordingly, the SGLT1 inhibitor compounds of Formula I or Formula II are locally acting in the gut, and have poor systemic exposure. […] Systemic exposure (e.g., Cmax) can be measured by methods well known in the art, including liquid chromatography mass spectrometry.

[5] = Excretion after oral dosing in non-human primates; assay type: in vivo
Source text: as §1

SMILES: Cc1cc(OCCCNCC(C)(C)C(N)=O)ccc1Cc1c(O[C@@H]2O[C@H](CO)[C@@H](O)[C@H](O)[C@H]2O)n[nH]c1C(C)C [mizagliflozin, 3-(3-{4-[3-(β-D-glucopyranosyloxy)-5-isopropyl-1H-pyrazol-4-ylmethyl-]-3-methylphenoxy}propylamino)-2,2-dimethylpropionamide]
- mode of inhibition of SGLT1 (Dixon plot intersection pattern) ([1]; rat SGLT1): competitive with substrate
- Ki ([1]; α-MG 0.3 and 1 mM, COS-7 cells): 31.2 nM
- ED50 ([2]; Rattus norvegicus, read-out: ED50 calculated from mean ΔAUC0-1 h (% of control), mixed carbohydrate 2.0 g/kg, single oral dose): 0.13 mg/kg
- ΔAUC0-1 h of plasma glucose versus vehicle control ([2]; mixed carbohydrate 2.0 g/kg): significantly lowered
- AUC 0-5 GIP ([3]; 2 mg per dose): 1096.21 pg·h/mL
- AUC 0-5 GLP-1 (active) ([3]; 2 mg per dose): 21.21 pmol·h/L
- AUC 0-5 Insulin ([3]; 2 mg per dose): 166.61 uU*h/ml
- AUC 0-5 glucose ([3]; 2 mg per dose): 550.6 mg·h/dL
- GIP (peak) ([3]; 2 mg per dose): 285 pg/mL
- GLP-1 (active) (peak) ([3]; 2 mg per dose): 5.98 pmol/L
- Glucose (peak) ([3]; 2 mg per dose): 131.6 mg/dL
- Insulin (peak) ([3]; 2 mg per dose): 58.05 uU/ml
- Time (h) to peak, GIP ([3]; 2 mg per dose): 3 h
- Time (h) to peak, GLP-1 (active) ([3]; 2 mg per dose): 0.5 h
- Time (h) to peak, glucose ([3]; 2 mg per dose): 1 h
- Time (h) to peak, insulin ([3]; 2 mg per dose): 1.5 h
- AUC 0-5 GIP ([3]; 5 mg per dose): 1057.89 pg·h/mL
- AUC 0-5 GLP-1 (active) ([3]; 5 mg per dose): 22.36 pmol·h/L
- AUC 0-5 Insulin ([3]; 5 mg per dose): 146.08 uU*h/ml
- AUC 0-5 glucose ([3]; 5 mg per dose): 524.6 mg·h/dL
- GIP (peak) ([3]; 5 mg per dose): 280.88 pg/mL
- GLP-1 (active) (peak) ([3]; 5 mg per dose): 5.95 pmol/L
- Glucose (peak) ([3]; 5 mg per dose): 118.6 mg/dL
- Insulin (peak) ([3]; 5 mg per dose): 44 uU/ml
- Time (h) to peak, GIP ([3]; 5 mg per dose): 3 h
- Time (h) to peak, GLP-1 (active) ([3]; 5 mg per dose): 0.5 h
- Time (h) to peak, glucose ([3]; 5 mg per dose): 1.5 h
- Time (h) to peak, insulin ([3]; 5 mg per dose): 2 h
- AUC 0-5 GIP ([3]; 10 mg per dose): 839.7 pg·h/mL
- AUC 0-5 GLP-1 (active) ([3]; 10 mg per dose): 41.12 pmol·h/L
- AUC 0-5 Insulin ([3]; 10 mg per dose): 176.7 uU*h/ml
- AUC 0-5 glucose ([3]; 10 mg per dose): 541.3 mg·h/dL
- GIP (peak) ([3]; 10 mg per dose): 240.75 pg/mL
- GLP-1 (active) (peak) ([3]; 10 mg per dose): 10.01 pmol/L
- Glucose (peak) ([3]; 10 mg per dose): 121.3 mg/dL
- Insulin (peak) ([3]; 10 mg per dose): 55.13 uU/ml
- Time (h) to peak, GIP ([3]; 10 mg per dose): 3 h
- Time (h) to peak, GLP-1 (active) ([3]; 10 mg per dose): 0.5 h
- Time (h) to peak, glucose ([3]; 10 mg per dose): 1.5 h
- Time (h) to peak, insulin ([3]; 10 mg per dose): 1 h
- AUC 0-5 GIP ([3]; 20 mg per dose): 755.01 pg·h/mL
- AUC 0-5 GLP-1 (active) ([3]; 20 mg per dose): 24.74 pmol·h/L
- AUC 0-5 Insulin ([3]; 20 mg per dose): 142.25 uU*h/ml
- AUC 0-5 glucose ([3]; 20 mg per dose): 522.4 mg·h/dL
- GIP (peak) ([3]; 20 mg per dose): 217.15 pg/mL
- GLP-1 (active) (peak) ([3]; 20 mg per dose): 6.01 pmol/L
- Glucose (peak) ([3]; 20 mg per dose): 121 mg/dL
- Insulin (peak) ([3]; 20 mg per dose): 47.69 uU/ml
- Time (h) to peak, GIP ([3]; 20 mg per dose): 3 h
- Time (h) to peak, GLP-1 (active) ([3]; 20 mg per dose): 0.5 h
- Time (h) to peak, glucose ([3]; 20 mg per dose): 1.5 h
- Time (h) to peak, insulin ([3]; 20 mg per dose): 1.5 h
- active GLP-1 concentration ([3]; healthy adult male volunteers): a tendency toward increase in active GLP-1 concentration was seen
- hyperglycemia after breakfast, lunch, and evening meal ([3]; healthy adult male volunteers): suppressed after breakfast, lunch, and evening meal on a level equivalent to the miglitol group
- insulin secretion ([3]; healthy adult male volunteers): inhibition of insulin secretion along with inhibition of hyperglycemia was seen the same as in the miglitol group
- total GIP concentration ([3]; healthy adult male volunteers): increase in total GIP concentration was seen on a level equivalent to the miglitol group
- total GLP-1 concentration ([3]; healthy adult male volunteers): increase in total GLP-1 concentration was seen on a level equivalent to the miglitol group
- bioavailability ([4]; male, rat, plasma, po): 0.01 to 0.08%
- Cmax and AUCt versus dose ([4]; oral 3, 10 and 30 mg/kg, fasted male rats): increased with dose, but not in a clear dose proportional manner
- excreted in the feces ([4]; rats, oral dosing): > 97 % of orally administered dose
- excreted in the feces [5]: > 82 % of orally administered dose
